Laboratory results taken from patent publication US20040081655A1, “Methods and compositions comprising polycationic compounds” (priority 2001, published 2004).
Entries after “also recorded” stand apart in the source; their conditions may differ. No end group written: not given here.

How the values were obtained:
[1] = Depot formation at the injection site, fluorescence-labelled compounds, photos (Example 2a); parameters: species or system Mice C57Bl/6; details: mouse, in vivo, sc
Procedure: On day 0 mice were injected subcutaneously into the right flank with a total volume of 100 μl containing the above mentioned compounds. Animals were sacrificed at the indicated time points after injection and photos were taken from the injection sites (FIG. 2a).

[2] = FACS analyses of lymphoid and non-lymphoid tissues for CpG-ODN-Cy5 (Example 2b); parameters: species or system Mice C57B1/6; details: mouse, in vivo, sc
Procedure: Mice were injected subcutaneously into the right flank with a total volume of 100 μl containing the above mentioned compounds. One day after injection, mice were sacrificed and FACS-analyses were performed from secondary lymphoid organs (draining lymph node, spleen) as well as non-lymphoid tissues (lung, liver, kidney, heart) (FIG. 2b).

human dendritic cells = test: LPS-induced production of pro-inflammatory cytokines by human dendritic cells in vitro (Example 10)
Procedure: Human DC were generated from monocytes. Briefly, peripheral blood leukocytes (PBLs) were isolated from buffy coats of healthy volunteers by Ficoll gradient centrifugation. Monocytes were isolated from PBLs using CD14-coated magnetic beads (Miltenyi Biotec Inc., Germany) applied according to the manufacturer's instructions. Using this method, we obtained >95% CD14^+ cells as determined by flow cytometry. These CD14^+ monocytes were cultured in RPMI 1640 medium supplemented with 10% FCS (PAA Laboratories, Linz, Austria), non-essential aminoacids, L-glutamin, gentamicin, sodium pyruvate, 100 ng/ml human GM-CSF and 500 U/ml human IL-4 in 6-well tissue plates for 6-7 days. To this end, the cultures contained >80%. MHC class II^+/CD1a^+ cells (=DC).
Human dendritic cells (DC) were generated as described in example 6. For in vitro-stimulations, day 7-cultured dendritic cells were incubated for 12 h with the indicated compounds. After centrifugation, supernatant was removed, cells were washed once with medium, then fresh medium with the indicated compounds was added, and the cells were incubated for additional 12 h. Supernatants were harvested and analyzed for the production of TNF-a and IL-6 using specific ELISAs.

CD11c+ sorted BM-DC [3] = test: CpG-ODN-induced production of TNF-α and IL-6 by murine BM-DC in vitro, poly-L-arginine (Example 5); type: cell-based, C57Bl/6 mice; details: 24 h; for production of IL-6 by murine BM-DC / production of TNF-α by murine BM-DC: substance alone (poly-L-arginine 10 μg/ml; CpG-ODN 1668 1 nmol/ml), supernatant ELISA
Procedure: (§1) Murine dendritic cells (DC) were generated from bone-marrow precursor cells of C57Bl/6 mice as previously described (Inaba 1992). Briefly, bone marrow cells were obtained by flushing the femurs and tibias with medium. Cells were depleted of lymphocytes, granulocytes and MHC class II^+cells by Ab-complement-mediated lysis. Dead cells were removed by Ficoll gradient (Ficoll Separating Solution, density […]; Biochrom KG, Germany). The remaining cells (1×10^6/ml) were cultured in 24-well culture plates in high glucose DMEM medium (PAA Laboratories GmbH, Linz, Austria; E 15-009) supplemented with 10% heat-inactivated FCS, 10. mM sodium pyruvate, 2 mM L-glutamine, […] gentamicin, 0.5 mM 2-mercaptoethanol (all supplements from PAA Laboratories GmbH, Linz, Austria), 20 ng/ml GM-CSF and 250 U/ml IL-4. On day 3 of culture, cells were fed with fresh medium. On day 6 of culture, non-adherent cells and loosely adherent aggregates were harvested, washed and re-plated in 6-well culture plates (2×10^6/5 ml). After additional 1 day of culture, non-adherent cells were collected for analyses. […] For in vitro-stimulations, day 7-cultured bone marrow cells were further enriched for CD11c^+ cells (=DC) using magnetic beads (Miltenyi, Bergisch-Gladbach, Germany). The purity of BM-DC was more than 95% as determined by flow cytometry analyses. […] Supernatants were harvested after 24 h and analysed for the production of TNF-α and IL-6 using specific ELISAs.

[4] = test system: human monocyte-derived DC; test: Poly I:C-induced production of pro-inflammatory cytokines by human DC in vitro (Example 6); type: cell-based; details: for poly I:C-induced production of pro-inflammatory cytokines by human DC: poly I:C and pR60 together, in vitro
Procedure: Human DC were generated from monocytes.
To determine, which cytokines are induced/produced by DC upon poly I:C and/or pR stimulation, DC were incubated with different stimuli for 12 and 24 hours, supernatants were harvested, stored at −20° C. and screened for the presence of respective cytokines by specific ELISAs.

TNF-α and IL-6 = test: CpG-ODN-induced systemic production of TNF-α and IL-6 in vivo, serum ELISA (Example 4); parameters: species or system Mice C57Bl/6; details: poly-L-arginine co-injected with OVA257-264-peptide and CpG-ODN; serum one hour after injection
Procedure: (§2) Mice were injected into each hind footpad with a total volume of 100 μl (50 μl per footpad), containing the above mentioned compounds. One hour after injection blood was taken from the tail-vein and serum was prepared. The amount of the pro-inflammatory cytokines TNF-α and IL-6 in the sera was determined by cytokine-specific ELISAs according to the manufacturer's instructions (R&D Systems, Inc., Minneapolis, Minn.).

[5] = test system: murine bone-marrow-derived dendritic cells; test: LPS-induced production of pro-inflammatory cytokines by murine bone-marrow-derived dendritic cells in vitro (Example 9); type: cell-based, C57Bl/6 mice
Procedure: Murine dendritic cells (DC) were generated from bone-marrow precursor cells of C57Bl/6 mice as previously described (Inaba 1992). Briefly, bone marrow cells were obtained by flushing the femurs and tibias with medium. Cells were depleted of lymphocytes, granulocytes and MHC class II^+cells by Ab-complement-mediated lysis. Dead cells were removed by Ficoll gradient (Ficoll Separating Solution, density […]; Biochrom KG, Germany). The remaining cells (1×10^6/ml) were cultured in 24-well culture plates in high glucose DMEM medium (PAA Laboratories GmbH, Linz, Austria; E 15-009) supplemented with 10% heat-inactivated FCS, 10. mM sodium pyruvate, 2 mM L-glutamine, […] gentamicin, 0.5 mM 2-mercaptoethanol (all supplements from PAA Laboratories GmbH, Linz, Austria), 20 ng/ml GM-CSF and 250 U/ml IL-4. On day 3 of culture, cells were fed with fresh medium. On day 6 of culture, non-adherent cells and loosely adherent aggregates were harvested, washed and re-plated in 6-well culture plates (2×10^6/5 ml). After additional 1 day of culture, non-adherent cells were collected for analyses. […] For in vitro-stimulations, day 7-cultured bone marrow cells were further enriched for CD11c^+ cells (=DC) using magnetic beads (Miltenyi, Bergisch-Gladbach, Germany). The purity of BM-DC was more than 95% as determined by flow cytometry analyses.
Murine dendritic cells (DC) were generated from bone-marrow precursor cells of C57Bl/6 mice as described in example 5.

TNF-a and IL-6 = test: BCG/CpG-ODN-induced systemic production of TNF-a and IL-6 in vivo, serum ELISA (Example 8); parameters: species or system Mice C57Bl/6
Procedure: as §2, with “injected subcutaneously” for “injected”, “the flank” for “each hind footpad”, “μl,” for “μl (50 μl per footpad),”, “TNF-a” for “TNF-α”

[6] = Depot formation at the injection site at day 4, labelled TRP-2 peptide/pR60/CpG-ODN (Example 3); type: in vivo, Mice C57Bl/6; details: injected either alone or in combination with CpG-ODN-Cy5
Procedure: On day 0 mice were injected subcutaneously into the right flank with a total volume of […] containing the above mentioned compounds. Animals were sacrificed at day 4 after injection and photos were taken from the injection sites (FIG. 3).

CD11c+ sorted BM-DC [7] = test: CpG-ODN-induced production of TNF-α and IL-6 by murine BM-DC in vitro, KLK (Example 7); type: cell-based, C57B1/6 mice; details: substance alone (KLK 16, 8 μg/ml; CpG-ODN 1668 0.5 nmol/ml); 24 h; supernatant ELISA
Procedure: as §1
Murine dendritic cells (DC) were generated from bone-marrow precursor cells of C57B1/6 mice as described in example 5.

[8] = cells pre-incubated with polycationic compound 12 h, then LPS 12 h
[9] = in vitro, mode of incubation not specified
[10] = mixture of LPS and polycationic compound, 12 h
[11] = substance alone (LPS 5 ng/ml; pR60 10 μg/ml; KLK 16, 8 μg/ml; pK 10 μg/ml), culture medium 12 h then substance 12 h
[12] = mixture of CpG-ODN 1668 (1 nmol/ml) and poly-L-arginine (10 μg/ml)
[13] = mixture of pIC (10 μg/ml) and pR (10 μg/ml), 12 and 24 hours
[14] = substance alone, 10 μg/ml, 12 and 24 hours, supernatant ELISA
[15] = cells pre-incubated with poly-L-arginine 12 h, then LPS 12 h
[16] = mixture of LPS/poly-L-arginine, 12 h
[17] = substance alone (LPS 10 ng/ml; pR60 10 μg/ml), culture medium 12 h then substance 12 h
[18] = BCG vaccine and CpG-ODN co-injected with poly-L-arginine, serum one hour after injection
[19] = one hour after s.c. injection into the flank, ELISA

CpG-ODN-Cy5: phosphothioate-modified, Cy5-labeled oligodinucleotides containing a CpG motif: tcc atg acg ttc ctg atg ct (DNA TCCATGACGTTCCTGATGCT; DNA, all phosphorothioate, methylation of C not given here; Cy5 label)
distribution of CpG-ODN-Cy5 after injection [1]: distribution of CpG-ODN-Cy5 all over the skin
CpG-ODN-Cy5 in secondary lymphoid organs and non-lymphoid tissues (FACS) [2]: detectable in secondary lymphoid organs (draining lymph node, spleen) and non-lymphoid tissues (lung, liver, kidney, heart)

Poly-L-Arginine
LPS-induced production of IL-6 by human dendritic cells (human dendritic cells; [8]): inhibited
LPS-induced production of TNF-a by human dendritic cells (human dendritic cells; [8]): inhibited
LPS-induced production of pro-inflammatory cytokines by human dendritic cells (human dendritic cells; [9]): decrease
LPS-induced production of IL-6 by human dendritic cells (human dendritic cells; [10]): inhibited
LPS-induced production of TNF-a by human dendritic cells (human dendritic cells; [10]): inhibited
production of IL-6 by human dendritic cells (human dendritic cells; [11]): could not detect any
production of TNF-a by human dendritic cells (human dendritic cells; [11]): could not detect any
CpG-ODN 1668-induced production of IL-6 by murine BM-DC (CD11c+ sorted BM-DC [3]; [12]): inhibited; also recorded: abrogates
CpG-ODN 1668-induced production of TNF-α by murine BM-DC (CD11c+ sorted BM-DC [3]; [12]): inhibited; also recorded: abrogates
production of IL-6 by murine BM-DC (CD11c+ sorted BM-DC [3]): could not detect any; also recorded: neither TNF-α nor IL-6 were detectable
production of TNF-α by murine BM-DC (CD11c+ sorted BM-DC [3]): could not detect any; also recorded: neither TNF-α nor IL-6 were detectable
poly I:C-induced IL-6 production by human DC [4, 13]: inhibited
poly I:C-induced TNF-α production by human DC [4, 13]: inhibited
poly I:C-induced production of pro-inflammatory cytokines by human DC [4]: abrogates; also recorded: inhibits
poly I:C-induced production of pro-inflammatory cytokines by human DC ([4]; listed as pR): can be inhibited
production of IL-6 by human DC [4, 14]: could not detect any
production of TNF-α by human DC [4, 14]: could not detect any
production of IL-12/p70 by human DC ([4]; substance alone, 10 μg/ml, supernatant ELISA): could not detect any
CpG-ODN-induced systemic production of IL-6 (TNF-α and IL-6): inhibited; also recorded: prevents; also recorded: totally abolished
CpG-ODN-induced systemic production of TNF-α (TNF-α and IL-6): inhibited; also recorded: prevents; also recorded: totally abolished
LPS-induced production of IL-6 by murine BM-DC [5, 15]: inhibited
LPS-induced production of TNF-a by murine BM-DC [5, 15]: inhibited
LPS-induced production of pro-inflammatory cytokines by murine bone-marrow-derived dendritic cells [5, 9]: decrease
LPS-induced production of IL-6 by murine BM-DC [5, 16]: inhibited
LPS-induced production of TNF-a by murine BM-DC [5, 16]: inhibited
production of IL-6 by murine BM-DC [5, 17]: could not detect any
production of TNF-a by murine BM-DC [5, 17]: could not detect any
BCG/CpG-ODN-induced systemic production of IL-6 (TNF-a and IL-6; [18]): inhibited; also recorded: prevents
BCG/CpG-ODN-induced systemic production of TNF-a (TNF-a and IL-6; [18]): inhibited; also recorded: prevents

TRP-2181-188-peptide-FITC: FITC-labeled TRP-2-Peptide (VYDFFVWL), MHC class I (H-2 Kb) restricted epitope of mouse tyrosinase related protein-2 (also: FITC label, site not given here)
presence of the labelled peptide at the injection site [6]: not detectable at the injection site at day 4

tcc atg acg ttc ctg atg ct (TCCATGACGTTCCTGATGCT; chemistry not given here) [CpG-ODN 1668, phosphothioate-modified oligodinucleotides containing a CpG-motif, reference compound]
production of IL-6 by murine BM-DC (CD11c+ sorted BM-DC [7]): induces the production
production of TNF-a by murine BM-DC (CD11c+ sorted BM-DC [7]): induces the production
production of IL-6 by murine BM-DC (CD11c+ sorted BM-DC [3]; listed as CPG-ODN 1668): induces the production
production of TNF-α by murine BM-DC (CD11c+ sorted BM-DC [3]; listed as CPG-ODN 1668): induces the production
production of IL-6 by murine BM-DC (CD11c+ sorted BM-DC [3]; listed as CpG-ODN): significant amounts of both cytokines are produced
production of TNF-α by murine BM-DC (CD11c+ sorted BM-DC [3]; listed as CpG-ODN): significant amounts of both cytokines are produced
production of IL-6 in serum after injection (TNF-a and IL-6; [19]): induces the systemic production
production of TNF-a in serum after injection (TNF-a and IL-6; [19]): induces the systemic production
